Results as given in patent publication US20260137687A1, “GTPase INHIBITORS AND USES THEREOF” (The Regents of The University of California, priority 2022, published 2026).

Columns and labels:
K-Ras(G12R) [1] = molecular target: T1, K-Ras(G12R) (Homo sapiens, UniProt P01116, G12R); test: Lysate target engagement assay (anti-Ras immunoblot); format: binding; set-up: pMSCV-Puro plasmids containing full length human KRAS genes (G12R); expressed in transfected cells; host or cells: Ba/F3 (mouse) transduced with pMSCV-Puro KRAS(G12R); lysate
Procedure: For co-treatment with recombinant K-Ras(G12R), Ba/F3(G12R) cells were lysed with NP-40 buffer and adjusted to 1.5 mg/mL. A 0.1 μM solution of recombinant K-Ras(G12R) was prepared in NP-40 buffer. 18 μL of Ba/F3 lysate were added to 4 μL of a 0.5 mM solution of 3 containing 10% DMSO in NP-40 buffer or DMSO as control. 18 μL of recombinant K-Ras(G12R) solution or NP-40 was added and the mixtures were incubated for 16 h at 23° C. Subsequently samples were mixed with 5×SDS Loading Dye and heated at 95° C. for 5 min.
Unless otherwise noted, SDS-PAGE was run with Novex 12% Bis-Tris gel (Invitrogen) in MES running buffer (Invitrogen) at 200 V for 60 min following the manufacturer's instructions. Protein bands were transferred onto 0.2-μm nitrocellulose membranes (Bio-Rad) using a wet-tank transfer apparatus (Bio-Rad Criterion Blotter) in 1×TOWBIN buffer with 10% methanol at 75V for 45 min. Membranes were blocked in 5% BSA-TBST for 1 h at 23° C. Primary antibody binding was performed with the indicated antibodies diluted in 5% BSA-TBST at 4° C. for at least 16 h. After washing the membrane three times with TBST (5 min each wash), secondary antibodies (goat anti-rabbit IgG-IRDye 800 and goat anti-mouse IgG-IRDye 680, Li-COR) were added as solutions in 5% skim milk-TBST at the dilutions recommended by the manufacturer. Secondary antibody binding was allowed to proceed for 1 h at 23° C. The membrane was washed three times with TBST (5 min each wash) and imaged on a Li-COR Odyssey fluorescence imager.

K-Ras(G12R) [2] = molecular target: T1, K-Ras(G12R); test: Sos- or EDTA-mediated nucleotide exchange assay; format: biochemical; set-up: human K-Ras (G12R, aa 1-169); 6xHis tag + TEV cleavage site (N, cleaved yes); made in house; host or cells: E. coli BL21(DE3); conditions: BODIPY-GDP exchanged for unlabeled GDP; compound-bound K-Ras(G12R)
Procedure: This assay was performed as previously reported (38-41) with slight modifications. BODIPY-GDP-loaded K-Ras proteins were prepared freshly as follows. To a 10 μM solution of K-Ras(G12R)·GDP or K-Ras(G12R)·GDP·3 in SEC Buffer (1 mL) was added sequentially BODIPY-GDP (5 mM, 40 μL, Thermo Fisher, final concentration 200 μM) and Na-EDTA pH 8.0 (0.5 M, 5 μL, final concentration 2.5 mM). The mixture was incubated at 23° C. for 1 h, and a solution of MgCl2 (1.0 M, 20 μL, […]) was added to the reaction mixture. The protein solution was run through a PD-10 column to remove the excess nucleotide following the manufacturer's protocol. Briefly, sample (˜1.0 mL) and excess buffer (1.5 mL) were loaded onto the column (equilibrated with NucEx Buffer), and desalted protein was eluted with NucEx Buffer (3.5 mL). Desalted protein was diluted 1:1 to a concentration of roughly 1.5 μM in NucEx Buffer. 12 μL of this solution (triplicate for each condition) was added to wells of a black 384-well low-volume assay plate (Corning 4514). […] The plate was immediately placed in a TECAN Spark 20M plate reader, and fluorescence for BODIPY (excitation 488 nm, emission 520 nm) was read every 30 s over 1 h. Fluorescence intensity was normalized to values at time 0 and plotted again time. […]

K-Ras(G12R)·GDP = molecular target: T2, K-Ras(G12R)·GDP (Homo sapiens, UniProt P01116, G12R); test: Differential scanning fluorimetry; format: binding
T2 construct: human K-Ras (G12R, aa 1-169); 6xHis tag + TEV cleavage site (N, cleaved yes); made in house; host or cells: E. coli BL21(DE3)
Procedure: The protein of interest was diluted with SEC Buffer [20 mM HEPES 7.5, 150 mM NaCl, 1 mM MgCl2] to 8 μM. This solution was dispensed into wells of a white 96-well PCR plate in triplicate (25 μL/well). Fluorescence was measured at 0.5° C. temperature intervals every 30 s from 25° C. to 95° C. on a Bio-Rad CFX96 qPCR system using the FRET setting. Each data set was normalized to the highest fluorescence and the normalized fluorescence reading was plotted against temperature in GraphPad Prism 8.0. Tm values were determined as the temperature(s) corresponding to the maximum(ma) of the first derivative of the curve.

[3] = system: BaF3/G12R cells (±IL-3), TCC-Pan-2 cells, and A375 cells; test: Cellular activity (phospho-ERK immunoblot, growth inhibition); format: cell-based; conditions: at concentrations below 100 μM
Procedure: When indicated, cells were treated with drugs at 40-60% confluency at a final DMSO concentration of 1%. At the end of treatment period, cells were placed on ice. Unless otherwise indicated, adherent cells were washed once with ice-cold PBS (1 mL), scraped with a spatula, and pelleted by centrifugation (500×g, 5 min). Suspension cells were pelleted by centrifugation (500×g, 5 min), washed with 1 mL ice-cold PBS, and pelleted again. Cells were lysed in RIPA buffer supplemented with protease and phosphatase inhibitors (cOmplete and phosSTOP, Roche) on ice for 10 min. Lysates were clarified by high-speed centrifugation (19,000×g, 10 min). Concentrations of lysates were determined with protein BCA assay (Thermo Fisher) and adjusted to 2 mg/mL with additional RIPA buffer (or Co-IP Lysis Buffer). Samples were mixed with 5×SDS Loading Dye and heated at 95° C. for 5 min.
Cells were seeded into 96-well white flat bottom plates (1,000 cells/well) (Corning) and incubated overnight. Cells were treated with the indicated compounds in a nine-point threefold dilution series (100 μL final volume) and incubated for 72 h. Cell viability was assessed using a commercial CellTiter-Glo (CTG) luminescence-based assay (Promega). […] Plates were placed on an orbital shaker for 30 min before recording luminescence using a Spark 20M (Tecan) plate reader.

CC(=O)C(O)(O)C(=O)N1[C@@H]2CC[C@H]1CN(c1nc(OCC34CCCN3CCC4)nc3c(F)c(-c4cccc5cccc(Cl)c45)ncc13)C2 [compound 3, 1-((1R,5S)-3-(7-(8-chloronaphthalen-1-yl)-8-fluoro-2-((tetrahydro-1H-pyrrolizin-7a(5H)-yl)methoxy)pyrido[4,3-d]pyrimidin-4-yl)-3,8-diazabicyclo[3.2.1]octan-8-yl)-2,2-dihydroxybutane-1,3-dione]
modification of exogenous recombinant K-Ras(G12R)·GDP added to lysate (K-Ras(G12R) [1]; after 16 h of incubation): complete modification
modification of endogenous K-Ras(G12R) in BaF3/K-Ras(G12R) lysates (K-Ras(G12R) [1]; lysate not pre-loaded with GDP): did not detect any modification
modification of endogenous K-Ras(G12R) in BaF3/K-Ras(G12R) lysates (K-Ras(G12R) [1]; lysates pre-loaded with excess GDP): covalent modification
Sos-mediated nucleotide exchange (K-Ras(G12R) [2]): inhibited
rate of EDTA-mediated nucleotide exchange (K-Ras(G12R) [2]): significantly reduced
increase of melting temperature of K-Ras(G12R)·GDP·3 adduct vs unmodified K-Ras(G12R)·GDP (K-Ras(G12R)·GDP): 9.1 °C
cellular activity [3]: did not show cellular activity
